# From patent US8063055B2, “Substituted pyridone compounds and methods of use” (Amgen Inc., priority 2007, dated 2011)
# Like-named read-outs stand apart in the source and are kept apart here.
# Experiments:
# c-kit kinase enzyme = target: T1, c-kit kinase enzyme (Homo sapiens, UniProt P10721); experiment: C-kit Homogeneous Time Resolved Fluorescent (HTRF) kinase assay; assay type: biochemical; conditions: c-kit catalytic domain, biotinylated Her-2 peptide substrate, ATP
# T1 construct: (catalytic domain, N-terminal GST tagged, unphosphorylated)
# T1 sequence (P10721 589-937 limits assumed): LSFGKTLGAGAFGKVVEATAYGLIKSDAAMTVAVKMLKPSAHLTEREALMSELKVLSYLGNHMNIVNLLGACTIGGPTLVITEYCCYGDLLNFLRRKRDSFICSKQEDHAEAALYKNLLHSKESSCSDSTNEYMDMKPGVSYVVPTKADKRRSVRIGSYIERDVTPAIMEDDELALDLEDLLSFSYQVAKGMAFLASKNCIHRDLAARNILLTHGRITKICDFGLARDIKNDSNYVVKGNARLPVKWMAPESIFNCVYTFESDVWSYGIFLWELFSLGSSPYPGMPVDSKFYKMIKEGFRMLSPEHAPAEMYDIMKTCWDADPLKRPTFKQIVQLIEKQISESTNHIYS
# [1] = test system: SCF-stimulated UT-7 cells; conditions: Homo sapiens
# From the text: SCF and GM-CSF Stimulated UT7 Proliferation/Survival Assay:
# The purpose of this assay is to test the general anti-proliferative/cytotoxic effect of small molecule compounds on SCF or GM-CSF-stimulated UT-7 cells. Preventing SCF stimulated proliferation/survival is consistent with an on-mechanism effect whereas inhibition of GM-CSF driven proliferation/survival is indicative of off-target effects. UT-7 is a factor dependent human megakaryoblastic leukemia cell line that can be grown in either IL-3, GM-CSF, EPO or SCF (these cells have been confirmed to carry wild type c-kit receptor). Cells are maintained in growth media (IMDM, 10% HI-FBS, 1×PGS, 1 ng/mL GM-CSF). […] Small molecule compounds are first diluted in 100% DMSO, then diluted 1:4 in RT assay media. […] The treated cells are incubated in a 37° C. humidified incubator with 5% CO2 for 3 days. The amount of ATP is then measured as a surrogate marker for cell viability. […] The amount of SCF or GM-CSF stimulated viable cells in the presence of compound compared with in the presence of vehicle alone (HI control) is calculated using the formula: % control (POC)=(cpd−average LO)/(average HI−average LO)*100. Data (consisting of POC and inhibitor concentration in μM) is fitted to a 4-parameter equation (y=A+((B−A)/(1+((x/C)^D))), where A is the minimum y (POC) value, B is the maximum y (POC), C is the x (cpd concentration) at the point of inflection and D is the slope factor) using a Levenburg-Marquardt non-linear regression algorithm.
# [2] = UT7, 72 h, read-out: UT7 Proliferation cell assay data
# [3] = read-out: HTRF Fret enzyme assay data
# [4] = UT7, read-out: average IC50 value in the SCF stimulated UT7 proliferation and survival assay
Structure (SMILES),IC50 (c-kit kinase enzyme; HTRF Fret enzyme assay data) [µM],"IC50 [1, 2] [µM]",IC50 (c-kit kinase enzyme; [3]) [µM],"IC50 [1, 4] [µM]"
"Cc1ccn(-c2ccc(F)cc2)c(=O)c1-c1ccc2nc(N)ncc2c1 [Example 33, 3-(2-aminoquinazolin-6-yl)-1-(4-fluorophenyl)-4-methylpyridin-2(1H)-one]",0.063,0.107,–,–
"Cc1ccn(-c2ccc(N3CCOCC3)cc2)c(=O)c1-c1ccc2nc(N)ncc2c1 [Example 34, 3-(2-aminoquinazolin-6-yl)-4-methyl-1-(4-morpholinophenyl)pyridin-2(1H)-one]",–,0.072,0.013,–
"Cc1ccn(-c2ccc(CN3CCOCC3)cc2)c(=O)c1-c1ccc2nc(N)ncc2c1 [Example 35, 3-(2-aminoquinazolin-6-yl)-4-methyl-1-(4-(morpholinomethyl)phenyl)pyridin-2(1H)-one]",0.031,0.2,–,–
"Cc1ccn(-c2ccc(-n3cccn3)cc2)c(=O)c1-c1ccc2nc(N)ncc2c1 [Example 38, 1-(4-(1H-pyrazol-1-yl)phenyl)-3-(2-aminoquinazolin-6-yl)-4-methylpyridin-2(1H)-one]",–,0.018,0.01,–
"Cc1ccn(-c2ccc(F)c(F)c2)c(=O)c1-c1ccc2nc(N)ncc2c1 [Example 39, 3-(2-aminoquinazolin-6-yl)-1-(3,4-difluorophenyl)-4-methylpyridin-2(1H)-one]",0.048,0.063,–,–
"Cc1ccn(-c2ccc(Cl)c(Cl)c2)c(=O)c1-c1ccc2nc(N)ncc2c1 [Example 40, 3-(2-aminoquinazolin-6-yl)-1-(3,4-dichlorophenyl)-4-methylpyridin-2(1H)-one]",0.02,0.018,–,–
"Cc1ccc(-n2ccc(C)c(-c3ccc4nc(N)ncc4c3)c2=O)cc1Cl [Example 41, 3-(2-aminoquinazolin-6-yl)-1-(3-chloro-4-methylphenyl)-4-methylpyridin-2(1H)-one]",0.00821,0.012,–,–
"Cc1cc(-n2ccc(C)c(-c3ccc4nc(N)ncc4c3)c2=O)ccc1F [Example 42, 3-(2-aminoquinazolin-6-yl)-1-(4-fluoro-3-methylphenyl)-4-methylpyridin-2(1H)-one]",–,0.018,0.014,–
"Cc1ccn(-c2ccc(F)c(C(F)(F)F)c2)c(=O)c1-c1ccc2nc(N)ncc2c1 [Example 43, 3-(2-aminoquinazolin-6-yl)-1-(4-fluoro-3-(trifluoromethyl)phenyl)-4-methylpyridin-2(1H)-one]",0.0212,0.041,–,–
"Cc1ccn(-c2ccc(F)c(Cl)c2)c(=O)c1-c1ccc2nc(N)ncc2c1 [Example 45, 3-(2-aminoquinazolin-6-yl)-1-(3-chloro-4-fluorophenyl)-4-methylpyridin-2(1H)-one]",0.0989,0.04,–,–
"Cc1ccn(-c2cc(Cl)cc(Cl)c2)c(=O)c1-c1ccc2nc(N)ncc2c1 [Example 46, 3-(2-aminoquinazolin-6-yl)-1-(3,5-dichlorophenyl)-4-methylpyridin-2(1H)-one]",0.044,0.035,–,–
"Cc1ccn(CCC2CCCC2)c(=O)c1-c1ccc2nc(N)ncc2c1 [Example 52, 3-(2-aminoquinazolin-6-yl)-1-(2-cyclopentylethyl)-4-methylpyridin-2(1H)-one]",0.000818,0.024,–,≤ 1
"CC(C)=CCn1ccc(C)c(-c2ccc3nc(N)ncc3c2)c1=O [Example 54, 3-(2-aminoquinazolin-6-yl)-4-methyl-1-(3-methylbut-2-enyl)pyridin-2(1H)-one]",0.0239,0.012,–,≤ 1
"Cc1ccn(CCC(C)(C)C)c(=O)c1-c1ccc2nc(N)ncc2c1 [Example 57, 3-(2-aminoquinazolin-6-yl)-1-(3,3-dimethylbutyl)-4-methylpyridin-2(1H)-one]",0.0163,0.043,–,–
"CCC(C)CCn1ccc(C)c(-c2ccc3nc(N)ncc3c2)c1=O (stereo not shown) [Example 58, 3-(2-aminoquinazolin-6-yl)-4-methyl-1-(3-methylpentyl)pyridin-2(1H)-one]",0.00251,0.009,–,–
"Cc1ccn(CCC2CC2)c(=O)c1-c1ccc2nc(N)ncc2c1 [Example 59, 3-(2-aminoquinazolin-6-yl)-1-(2-cyclopropylethyl)-4-methylpyridin-2(1H)-one]",0.0789,0.028,–,–
"Cc1ccn(CCCC(C)C)c(=O)c1-c1ccc2nc(N)ncc2c1 [Example 61, 3-(2-aminoquinazolin-6-yl)-4-methyl-1-(4-methylpentyl)pyridin-2(1H)-one]",0.00112,0.004,–,≤ 1
